Results published in publication PMC11240139, “Exploring the antitumor potential of novel quinoline derivatives via tubulin polymerization inhibition in breast cancer; design, synthesis and molecular docking” (RSC Advances, 2024).

Experiments:
MDA-MB-231 cells [1] = experiment: Cell apoptosis analysis (annexin V-FITC/PI); assay type: cell-based; details: MDA-MB-231, IC50 dose, 24 h
Procedure: Annexin-V-FITC Apoptosis Detection Kit (Biovision, USA) was used to determine apoptotic cells according to manufacturer's instructions. Briefly, MDA-MB 231 cells (2 × 10^5 cells) were seeded in 6-well plates and cultured for 24 h. […] Cells were collected, washed with PBS and centrifuged. The cells were re-suspended in 500 μL of 1× binding buffer. 5 μL of annexin V-FITC and 5 μL of propidium iodide (PI […]) were added and the cells were incubated in the dark at room temperature for 5 min. The fluorescence of the stained cells was analyzed by flow cytometry using FACSCalibur (BD Biosciences, Mountain View, CA). The data were analyzed using the CellQuest software (BD Biosciences).[53,54]

MDA-MB-231 cells [2] = experiment: Cell cycle analysis by flow cytometry (PI); assay type: cell-based; details: MDA-MB-231, IC50 dose, 24 h; control 10.42%
Procedure: Propidium Iodide Flow Cytometry Kit for Cell Cycle Analysis (Abcam) was used according to manufacturer's instructions. Briefly, MDA-MB 231 cells (2 × 10^5 cells) were seeded in 6-well plates and cultured for 24 h. […] Cells were collected, washed with PBS and centrifuged. Subsequently, the cells were re-suspended and fixed in 66% ethanol on ice for at least 2 h. The cells were stained with a working solution containing propidium iodide (PI) in the dark at 37 °C for 30 min. DNA content of the cells were measured by flow cytometry using FACSCalibur (BD Biosciences, Mountain View, CA). The data were analyzed using the CellQuest software (BD Biosciences).[21]

tubulin = molecular target: T1, tubulin (Sus scrofa, UniProt P02550+P02554); set-up: method as in PMID 33203182, PMID 36893547, PMID 33730937, PMID 30525584, PMID 30530194; details: Fig. 4; read-out: tubulin inhibition IC50; cited from earlier work
T1 construct: purchased Cytoskeleton, USA
T1 sequence (P02554 whole entry): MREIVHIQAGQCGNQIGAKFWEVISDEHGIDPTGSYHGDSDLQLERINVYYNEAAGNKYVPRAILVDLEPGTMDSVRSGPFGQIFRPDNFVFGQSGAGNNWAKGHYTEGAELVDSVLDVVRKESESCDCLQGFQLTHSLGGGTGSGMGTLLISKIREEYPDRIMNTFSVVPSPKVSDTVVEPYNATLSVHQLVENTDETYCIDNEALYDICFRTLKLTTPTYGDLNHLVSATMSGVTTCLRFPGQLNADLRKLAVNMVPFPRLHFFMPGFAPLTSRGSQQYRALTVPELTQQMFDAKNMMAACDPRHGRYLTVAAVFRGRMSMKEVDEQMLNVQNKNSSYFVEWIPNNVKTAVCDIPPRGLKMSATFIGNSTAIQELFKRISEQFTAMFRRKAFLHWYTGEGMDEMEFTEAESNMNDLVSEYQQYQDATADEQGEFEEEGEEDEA
T1 sequence (P02550 whole entry): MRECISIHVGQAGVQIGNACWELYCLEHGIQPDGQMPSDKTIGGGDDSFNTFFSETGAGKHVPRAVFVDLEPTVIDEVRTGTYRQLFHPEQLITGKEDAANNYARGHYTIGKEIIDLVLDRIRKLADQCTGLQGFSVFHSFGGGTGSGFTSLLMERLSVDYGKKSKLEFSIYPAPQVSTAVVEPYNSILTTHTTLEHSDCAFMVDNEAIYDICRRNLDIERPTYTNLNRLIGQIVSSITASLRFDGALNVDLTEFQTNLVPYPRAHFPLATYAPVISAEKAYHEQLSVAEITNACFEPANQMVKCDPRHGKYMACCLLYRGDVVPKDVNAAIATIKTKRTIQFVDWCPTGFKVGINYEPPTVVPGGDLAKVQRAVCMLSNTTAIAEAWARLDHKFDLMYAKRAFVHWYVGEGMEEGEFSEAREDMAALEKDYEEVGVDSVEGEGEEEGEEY

SMILES: COc1cc2c(c(OC)c1OC)-c1ccc(OC)c(=O)cc1[C@@H](NC(C)=O)CC2 [Colchicine, colchicine]
- Early Apoptosis (%) (MDA-MB-231 cells [1]): 19.19 ± 0.87%
- Late Apoptosis (%) (MDA-MB-231 cells [1]): 6.62 ± 0.75%
- Necrosis (%) (MDA-MB-231 cells [1]): 11.41 ± 2.8%
- Total Cell Death (%) (MDA-MB-231 cells [1]): 37.22 ± 2.8%
- Necrosis (%) (MDA-MB-231 cells [1]; listed as colchicine): 11.41%
- cells population at G2 and M phases (MDA-MB-231 cells [2]): 26.51%

SMILES: COc1cc(C(=O)N/N=C/c2cc3ccc(OC(C)C)cc3nc2OC)cc(OC)c1OC [IX]
- IC50 (tubulin): 1320 nM

SMILES: COc1ccc(OC)c(/C=C/C(=O)c2ccc(NC(=O)COc3cccc4cccnc34)cc2)c1 [X]
- IC50 (tubulin): 5320 nM

SMILES: COc1ccc2nc(Cl)c(C3CC(c4ccc(N)cc4)=NN3c3ccccc3)cc2c1 (stereo not shown) [XIV]
- IC50 (tubulin): 9.11 nM

SMILES: C=C(c1ccc2c(ccn2C)c1)c1cc(C)nc2ccccc12 [XIII]
- IC50 (tubulin): 2090 nM
